From US20110236822A1, “METHOD OF TREATING SEASONED DEVELOPER SOLUTION” (priority 2010, published 2011)
Where two headings read alike, the source gives them in different places.

Legend:
[1] = Treatment of seasoned developer solution with Chlorox bleach solution, residual dye by FTIR; assay type: physicochemical; settings: Kodak 955 Developer seasoned, 15 ml bleach diluted to 6%, 2000 rpm
Procedure: An imageable layer coating formulation was prepared with the components in TABLE II below in a solvent mixture of methyl ethyl ketone:water:isopropyl alcohol (70:20:10 weight ratio). The formulation was coated onto a sulfuric acid anodized aluminum substrate and dried in a conveyor oven at 100° C. for 1 minute to provide an imageable layer with a dry coating weight of 1.60 g/m^2. The resulting printing plate precursors were imaged at 110 mJ/cm^2 and 11 Watt using a Kodak 3244x platesetter. The imaged precursors (approx. 11 m^2) were manually developed in 1 liter of Kodak 955 Developer to produce seasoned developer solution (3).
Samples (each 50 ml) of seasoned developer solution (3) were diluted with 150 ml of water and treated with 15 ml of Chlorox® bleach solution diluted to 6% by drop wise addition while stirring at 2000 rpm. The stirring continued for another 15 minutes after the addition. The green color of the seasoned developer solution samples disappeared, forming pale yellow, slightly turbid solutions. […] The extract was concentrated about 50 times and analyzed by FTIR. […]
An imageable layer coating formulation was prepared using the components of TABLE II above except that the IR dye was S0507 from Few Chemicals GmbH. […] The extract was concentrated 50 times by evaporation under nitrogen flow and spotted onto a sodium chloride disk, dried, and analyzed by FTIR. […]

aquatic life = settings: from MSDS sheets; cited from earlier work
[2] = Treatment of IR dye with oxidative and reducing reagents to degrade the dye (TABLE I); assay type: physicochemical
[3] = Treatment of seasoned developer solution with Chlorox bleach solution, residual dye by LC-MS; assay type: physicochemical; settings: Kodak 1080 Developer seasoned, diluted, 8 ml bleach diluted to 6%, 6000 rpm
Procedure: In this example, seasoned developer solutions containing IR dye 66e were treated with commercial Chlorox® bleach solution and the degradation products were examined by LC-MS. The seasoned developer solutions were prepared in the lab after development of imaged commercially available, negative-working printing plate precursors containing IR dye 66e with Kodak 1080 Developer under conditions that account for real-life situation at the end of the processor cycle when the seasoned developer solution is being changed. The following calculation of the coating concentration in the seasoned developer solution at the end of the processing cycle takes into account that a Mercury 1035 processor will have a cycle of 3150 m^2 plates/9 gal (34 liters) of developer solution that is the tank capacity. […]
To account for the lower limit, solution C was prepared by dissolving 1.1 m^2 of printing plate coating in 100 ml of developer solution. […] The precipitate (2) and the supernatant liquid (2) were analyzed by LC-MS for the IR dye 66e using the equipment and method described above in Comparative Example 3.
Precipitate (2) was extracted in acetonitrile:isopropanol at 2.5 mg/ml. […] This reference solution (standard) was analyzed to determine the sensitivity of the instrument. […]

[4] = Treatment of IR dye 66e in methanol with Chlorox bleach solution (qualitative, titration, LC-MS); assay type: physicochemical
[5] = Attempt to precipitate the anionic chromophore of IR Dye I as insoluble salts; assay type: physicochemical; settings: IR Dye I 0.3% in methanol; 3% solution of compound in water
humans = settings: from MSDS sheets; cited from earlier work
[6] = Attempt to precipitate the cationic chromophore of IR dye 66e as insoluble salts with organic acids; assay type: physicochemical; settings: IR dye 66e 0.3% in methanol; aqueous organic acid at 3% concentration
[7] = 0.3% IR dye 66e in methanol, 23° C.
[8] = after titration with diluted bleach

Which “residual dye in extract of sediment (3) or supernatant liquid (3) by FTIR” value [1] does the source give for `CC(=O)OCCN1/C(=C/C=C2\CCC(/C=C/C3=[N+](CCOC(C)=O)c4ccc5cc(S(=O)(=O)O)ccc5c4C3(C)C)=C2N(c2ccccc2)c2ccccc2)C(C)(C)c2c1ccc1cc(S(=O)(=O)[O-])ccc21` [IR Dye I] here?
The value was “No residual IR Dye I was found”.

With `N.N.O=S(=O)(O)OOS(=O)(=O)O` [Ammonium persulfate] as the compound, how does the “toxicity to aquatic life” value (aquatic life) read?
Its value is “toxic to aquatic life”.

And the “Change Noticed” value [2, 7]?
Its value is “Dye bleached pink”.

With `CN1/C(=C/C=C2\CCCC(/C=C/C3=[N+](C)c4ccccc4C3(C)C)=C2Sc2ccccc2)C(C)(C)c2ccccc21` [IR dye 66e] as the compound, how does the “residual dye in supernatant liquid (2) by LC-MS” value [3] read?
Its value is “No trace of IR dye 66e was found”.

And the “change of dye solution on bleach treatment” value ([4]; 0.3% in methanol, liberal amount of Chlorox bleach solution (3.6% sodium hypochlorite), room temperature, shaking)?
Its value is “color change from green to light yellow and a yellow precipitate was formed”.

And the “change of dye solution, incomplete degradation” value ([4]; 20 ml solution B titrated with 4.8 ml of 5% bleach (insufficient hypochlorite))?
Its value is “became reddish-brown”.

What about the “residual dye in filtrate (1) by LC-MS” value [4, 8] of the same compound?
Its value is “did not contain IR dye 66e”.

And the “residual dye in precipitate (1) by LC-MS” value [4, 8]?
Its value is “gave a signal for the IR dye 66e”.

And the “original dye co-precipitated with its degradation products” value ([4]; estimated, precipitate (1))?
Its value is “about 1%”.

What about the “undiluted Chlorox bleach solution needed to bleach 1 mg of dye” value ([4]; titration, per 1 mg dye, magnetic stirrer) of the same compound?
Its value is 0.007463 mL.

And the “Chlorox bleach solution needed for degradation of 1 g of dye” value ([4]; titration, per 1 g dye)?
Its value is 7.46 mL.

Which “precipitation of IR Dye I” value [5] does the source give for `CCCCCCCCCCCCCCCCCC[N+](C)(C)Cc1ccccc1.[Cl-]` [benzyl stearyl dimethyl ammonium chloride] here?
The value was “None of these compounds precipitated IR Dye I”.

With `C[N+](C)(C)Cc1ccccc1.[Cl-]` [benzyl trimethyl ammonium chloride] as the compound, how does the “precipitation of IR Dye I” value [5] read?
The value was “None of these compounds precipitated IR Dye I”.

For `O=C([O-])c1ccccc1.[Cu+]` [Cu(I) benzoate], which “Change Noticed” value [2] is on record?
Its value is “Dye bleached pink”.

Which “Change Noticed” value [2] does the source give for `O=[N+]([O-])[O-].O=[N+]([O-])[O-].O=[N+]([O-])[O-].O=[N+]([O-])[O-].O=[N+]([O-])[O-].O=[N+]([O-])[O-].[Ce+4].[NH4+].[NH4+]` [Ceric ammonium nitrate] here?
Its value is “Dye bleached pink”.

Which “Change Noticed” value ([2]; 0.3% IR dye 66e in methanol, NaOH, room temperature) does the source give for `OO` [Hydrogen peroxide] here?
The value was “Pink precipitate”.

And the “Change Noticed” value ([2]; 0.3% IR dye 66e in methanol, Sulfuric acid, 1%, 23° C.)?
Its value is “Black”.

And the “Change Noticed” value ([2]; 0.3% IR dye 66e in methanol, Sulfuric acid, 1%, Heat)?
The value was “Dye bleached pink”.

What about the “carcinogenic and mutagenic potential for humans” value (humans) of the same compound?
Its value is “potential carcinogenic and mutagenic for humans”.

Which “toxicity to aquatic life” value (aquatic life) does the source give for `[Cl][Fe]([Cl])[Cl]` [Ferric chloride] here?
The value was “toxic to aquatic life”.

And the “Change Noticed” value [2, 7]?
Its value is “Black”.

With `O=S(=O)([O-])OOS(=O)(=O)[O-].[K+].[K+]` [Potassium persulfate] as the compound, how does the “Change Noticed” value [2] read?
The value was “Brown”.

For `O=S([O-])[O-].[Na+].[Na+]` [Na sulfite], which “Change Noticed” value [2] is on record?
The value was “Some bleaching,”.

Which “toxicity to aquatic life” value (aquatic life) does the source give for `[Cl][Fe][Cl]` [Ferrous chloride] here?
The value was “toxic to aquatic life”.

What about the “Change Noticed” value [2, 7] of the same compound?
The value was “Black”.

For `O=S([O-])S(=O)(=O)[O-].[Na+].[Na+]` [Sodium metabisulfite], which “Change Noticed” value ([2]; 0.3% IR dye 66e in methanol, Heat) is on record?
Its value is “No reaction”.

With `O=S([O-])O.[Na+]` [Sodium hydrogen sulfite] as the compound, how does the “Change Noticed” value [2] read?
Its value is “No reaction”.

With `O=C1CCC(=O)N1Br` [N-Bromo-succinimide] as the compound, how does the “Change Noticed” value [2] read?
Its value is “Dye bleached pink”.

For `[O-][Cl+3]([O-])([O-])O` [Perchloric acid], which “Change Noticed” value [2] is on record?
Its value is “Dye bleached pink”.

For naphthalene sulfonic acid, which “precipitation of IR dye 66e” value [6] is on record?
Its value is “None of these organic acids were useful to precipitate the IR dye 66e”.
